Experimental data published in ChEMBL document CHEMBL6178018, “Design of an Oral STING Agonist through Intramolecular Hydrogen Bond Ring Mimicking to Achieve Complete Tumor Regression” (J Med Chem, 2025).

Experiments:
[1] = biological target: T1, Stimulator of interferon genes protein (Homo sapiens, UniProt Q86WV6); assay: Binding affinity to wild type His-tagged STING (unknown origin) measured after 3 hrs incubation by HTRF assay
Target sequence in this assay (Q86WV6 whole entry): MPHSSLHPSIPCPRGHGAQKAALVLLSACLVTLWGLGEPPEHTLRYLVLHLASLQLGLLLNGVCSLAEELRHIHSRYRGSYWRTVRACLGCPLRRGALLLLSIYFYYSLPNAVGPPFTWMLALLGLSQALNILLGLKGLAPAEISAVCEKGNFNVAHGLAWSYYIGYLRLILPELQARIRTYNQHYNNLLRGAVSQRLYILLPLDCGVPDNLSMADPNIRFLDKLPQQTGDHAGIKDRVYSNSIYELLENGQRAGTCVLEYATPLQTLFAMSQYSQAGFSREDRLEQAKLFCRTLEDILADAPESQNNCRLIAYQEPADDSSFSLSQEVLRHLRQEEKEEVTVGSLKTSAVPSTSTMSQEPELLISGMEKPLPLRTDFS

[2] = biological target: T1, Stimulator of interferon genes protein; assay: Agonist activity at human STING HAQ variant in human THP1-Blue ISG cells assessed as fold change in stimulation activity measured after 24 hrs incubation by QUANTI-Blue based microplate reader; format: cell-based
Target sequence in this assay (Q86WV6 whole entry, looked up, change not shown): as the sequence (Q86WV6 whole entry) above

[3] = biological target: T1, Stimulator of interferon genes protein; assay: Agonist activity at STING R232 mutant (unknown origin) expressed in human THP1-Dual cells assessed as fold change in stimulation activity measured after 24 hrs incubation by QUANTI-Luc4 based microplate reader; format: cell-based
Target sequence in this assay (Q86WV6 whole entry, looked up, change not shown): as the sequence (Q86WV6 whole entry) above

[4] = biological target: T2, Stimulator of interferon genes protein (Mus musculus, UniProt Q3TBT3); assay: Agonist activity at mouse STING expressed in human THP1-Dual cells assessed as fold change in stimulation activity measured after 24 hrs incubation by QUANTI-Luc4 based microplate reader; format: cell-based
T2 sequence (Q3TBT3 whole entry): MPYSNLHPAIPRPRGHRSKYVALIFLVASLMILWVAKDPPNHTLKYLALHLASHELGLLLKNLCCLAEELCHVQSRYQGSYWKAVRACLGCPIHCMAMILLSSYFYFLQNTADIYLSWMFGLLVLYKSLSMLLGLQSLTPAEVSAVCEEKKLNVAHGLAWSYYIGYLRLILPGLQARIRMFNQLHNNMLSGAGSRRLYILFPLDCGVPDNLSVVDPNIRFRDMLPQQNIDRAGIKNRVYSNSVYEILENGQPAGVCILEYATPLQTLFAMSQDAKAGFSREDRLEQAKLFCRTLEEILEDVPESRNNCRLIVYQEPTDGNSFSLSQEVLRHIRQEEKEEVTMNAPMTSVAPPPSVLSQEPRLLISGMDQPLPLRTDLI

| IC50 [1] | EC50 [2] | EC50 [3] | EC50 [4] | SMILES |
| --- | --- | --- | --- | --- |
| 31.2 µM | 3.7 µM | 18.4 µM | 22 µM | COc1cc2sc(C(=O)NCC3(C(=O)O)CCC3)c(F)c2cc1OC |
| 28.7 µM | 4.7 µM | 36.5 µM | 27.9 µM | COc1cc2sc(C(=O)NC[C@@H](C)C(=O)O)c(F)c2cc1OC |
| – | > 100 µM | – | – | COc1cc2sc(C(=O)NCCC(=O)O)c(C)c2cc1OC |
| 65.5 µM | 11.3 µM | 51.3 µM | 45.9 µM | CC[C@@H](CNC(=O)c1sc2cc(OC)c(OC)cc2c1F)C(=O)O |
| – | > 100 µM | – | – | COc1cc2sc(C(=O)NCCC(=O)O)c(F)c2cc1F |
| – | > 100 µM | – | – | CONC(=O)C(C)CNC(=O)c1sc2cc(OC)c(Br)cc2c1F (stereo not drawn) |
| – | > 100 µM | – | – | COc1cc2sc(C(=O)NCCc3nnn[nH]3)c(F)c2cc1OC |
| – | > 100 µM | – | – | COc1cc2sc(C(=O)NC(C)(C)CC(=O)O)c(F)c2cc1OC |
| – | 33 µM | – | – | CONC(=O)CCNC(=O)c1sc2cc(OC)c(OC)cc2c1F |
| > 100 µM | 13.2 µM | > 100 µM | > 100 µM | CCC(CNC(=O)c1sc2cc(Br)c(OC)cc2c1F)C(=O)O (stereo not drawn) |
| – | > 100 µM | – | – | COc1cc2sc(C(=O)NCC(F)(F)C(=O)O)c(F)c2cc1Br |
| – | > 100 µM | – | – | COc1cc2sc(C(=O)NCCC(N)=O)c(F)c2cc1OC |
| – | 26.5 µM | – | – | COc1cc2sc(C(=O)NCCC(=O)O)c(Cl)c2cc1OC |
| – | > 100 µM | – | – | COc1cc2sc(C(=O)NCC(F)(F)C(=O)O)c(F)c2cc1OC |
| – | > 100 µM | – | – | COc1cc2sc(C(=O)N[C@@H](C)CC(=O)O)c(F)c2cc1OC |
| – | > 100 µM | – | – | COc1cc2sc(C(=O)NCC3(C(=O)O)CC3)c(F)c2cc1OC |
| – | > 100 µM | – | – | COc1cc2sc(C(=O)NCCS(N)(=O)=O)c(F)c2cc1OC |
| 75.2 µM | 3.5 µM | 85.9 µM | 92.7 µM | CCC(CNC(=O)c1sc2c(F)c(OC)c(OC)cc2c1F)C(=O)O (stereo not drawn) |
| – | 47.2 µM | – | – | COc1cc2sc(C(=O)NCCC(=O)O)c(Br)c2cc1OC |
| – | > 100 µM | – | – | CCC(CNC(=O)c1sc2cc(OC)c(OC(F)F)cc2c1F)C(=O)O (stereo not drawn) |
| – | > 100 µM | – | – | COc1cc2sc(C(=O)NCC(=O)O)c(F)c2cc1OC |
| – | > 100 µM | – | – | COc1cc2sc(C(=O)NCC(C)C(=O)O)c(F)c2cc1Br (stereo not drawn) |
| – | > 100 µM | – | – | COc1ccc2c(F)c(C(=O)NCCC(=O)O)sc2c1 |
